Measured values from patent publication US8653304B2, “2,3-dihydro-1H-indene-2-yl urea derivative and pharmaceutical application of same” (Toray Industries, Inc., priority 2009, dated 2014).

How the values were obtained:
[1] = tested on: hyperalgesia in Chung model; assay: Hyperalgesia in neuropathic pain model (Chung model), von Frey test; type: in vivo; settings: SD rat, Chung model day 7, oral 100 mg/kg, 90 minutes after administration
From the text: (§1) The action of Compound (I) on hyperalgesia in pain models was studied. As the pain models, models partially modified from an inflammatory pain model (a carrageenin paw edema pain model) and neuropathic pain models (Bennett model and Chung model) described in documents (Anesth. Analg., 2009, Vol. 108, pp. 1680-1687; Pain, 1988, Vol. 33, pp. 87-107; and Pain, 1992, Vol. 50, pp. 355-363) were used.
The Chung model was produced by completely ligating the L5 and L6 spinal nerves of each Crl:CD (SD) rat (male, 6-week old, Charles River Laboratories Japan, Inc.) with a silk suture (5-0). Seven days after the Chung model was produced, each test compound was orally administered, and von Frey test was performed 90 minutes after the administration. In addition, fifteen days after the Chung model was produced, each test compound was orally administered, and plantar test was performed 90 minutes after the administration. The von Frey test was carried out by measuring the pain threshold (g) of the left footpad (model foot) using Dynamic Plantar Aesthesiometer (37400, Ugo Basile) wherein the maximum pressure was set to 30.0 g and the time required to reach the maximum pressure was set to 40 seconds. The plantar test was carried out by the method described above. […]

ICR mouse = assay: Evaluation of hepatotoxicity in mouse (plasma AST); type: in vivo; settings: oral 500 mg/kg, plasma on the day after administration
Experimental: Compound (I) was suspended in 0.5% methylcellulose (Wako Pure Chemical Industries, Ltd.) to prepare a 50 mg/mL solution to be administered. To each ICR mouse (male, 7-week old, Charles River Laboratories Japan, Inc.), each compound was orally administered at a dose of 500 mg/kg. On the day after the administration, blood was collected from the posterior vena cava, and the obtained blood was centrifuged to collect blood plasma. AST (aspartate aminotransferase) value, which is a marker of hepatic disorders in blood plasma, was measured with a biochemistry automatic analyzer (Hitachi 7070, Hitachi, Ltd.). Comparative Compound 4 was suspended in 0.5% sodium carboxymethylcellulose (Wako Pure Chemical Industries, Ltd.) before use.

[2] = Metabolic stability in human CYP (human liver microsomes); type: in vitro ADME; settings: human liver microsomes 0.5 mg/mL, NADPH, 37° C., compound 2 μM
Experimental: Each test compound was mixed at a concentration of 2 μM with a phosphate buffer solution containing Human liver microsomes (Xenotech) in an amount of 0.5 mg/mL. Thereafter, NADPH was added thereto, and the obtained mixture was allowed to react at 37° C. for up to 30 minutes. The reaction was terminated by adding acetonitrile, and then the resultant was centrifuged for 10 minutes at 4° C. to collect a supernatant. The supernatant was pretreated by methanol extraction method, and the concentration of the compound was analyzed by LC/MS/MS (ESI positive mode). The compound remaining rate was calculated from the obtained concentration of the compound.

TNFα production = assay: Mouse LPS-induced cytokine production model; type: in vivo; settings: BALB/c mouse, 50 mg/kg oral 30 minutes before LPS 1 mg/kg i.p., serum 60 minutes after LPS
Experimental: The action of Compound (I) on the TNFα production induced by LPS administration in a mouse was studied by a method partially modified from the method described in Journal of Immunology (1992, Vol. 148, pp. 1890-1897).
To each BALB/c mouse (male, 7 to 9-week old, Charles River Laboratories Japan, Inc.), LPS (0111:B4, SIGMA) was intraperitoneally administered at a dose of 1 mg/kg. Sixty minutes after the LPS administration, blood was collected from the abdominal vena cava under anesthesia and centrifuged for 15 minutes at 4° C. to obtain a serum. For the measurement of TNF-α in the serum, ELISA Development System (R&D Systems) was used. Each test compound was dissolved in DMSO (Final Concentration: 2%), and then the obtained solution was dissolved in a 27% aqueous solution of 2-hydroxypropyl-β-cyclodextrin (hereinafter referred to as “HP-β-CD”; Nihon Shokuhin Kako Co., Ltd.). Thirty minutes before the LPS administration, the resulting solution was orally administered at 50 mg/kg.

[3] = tested on: skin swelling response in type I allergic dermatitis model; assay: Skin swelling response in type I allergic dermatitis model; type: in vivo; settings: BALB/c mouse, 20 μL of 0.5 w/v % solution applied to auricle 1 hour before induction
From the text: The action of Compound (I) on skin swelling response in mouse allergic dermatitis models was studied. As the allergic dermatitis models, models partially modified from a type I allergic dermatitis model and a type IV allergic dermatitis model described in documents (Inflamm. Res., 1998, Vol. 47, pp. 506-511 and Int. Arch. Allergy. Appl. Immunol., 1990, Vol. 92, pp. 356-360) were used.
To each BALB/c mouse (female, 7-week old, Charles River Laboratories Japan, Inc.), mouse IgE anti-DNP antibody (0.05 mg/body, […] CORPORATION) was intravenously administered to passively sensitize the mouse. Twenty four hours after the sensitization, 20 μL of 0.38% DNFB (SIGMA) dissolved in acetone:olive oil (4:1) was applied to the auricle of the mouse to induce inflammation. From after the induction to 24 hours, the thickness of the auricle was measured with time using a Digimatic Indicator (Mitutoyo). Each test compound was dissolved in ethanol, and 20 μL of 0.5 w/v % solution was applied to the auricle at 1 hour before the induction.
The swelling ratio of the auricle was calculated according to the following equation. […] Auricular Swelling Ratio(%)=(A−B)/B×100

[4] = tested on: hyperalgesia in Chung model; assay: Hyperalgesia in neuropathic pain model (Chung model), plantar test; type: in vivo; settings: SD rat, Chung model day 15, oral 100 mg/kg, 90 minutes after administration; FIG. 3
From the text: as §1
The Bennett model was produced by lightly ligating the sciatic nerve in the left thigh of each Crl:CD (SD) rat (male, 6-week old, Charles River Laboratories Japan, Inc.) at 4 points with chromic catgut (4-0). Fourteen days after the Bennett model was produced, each test compound was orally administered, and plantar test was performed 90 minutes after the administration. The plantar test was carried out by measuring the pain threshold (sec) of the left footpad (model foot) using a plantar thermal stimulation device (Plantar test 7370, Ugo Basile) wherein the thermal stimulus intensity was set to 60. Each test compound was suspended in 0.5 w/v % methylcellulose (Wako Pure Chemical Industries, Ltd.) and the obtained solution was orally administered. Compound 46b described in the Examples was administered at a dose of 100 mg/kg, and gabapentin (Toronto Research Chemicals), which is an anticonvulsant, was administered as a comparative control agent at a dose of 100 mg/kg. […]

COc1c(NC(=O)N[C@@H]2Cc3ccccc3[C@@H]2O)cc(C(C)(C)C)cc1[C@@H](O)C(F)(F)F [Compound 46b, 1-(5-tert-butyl-2-methoxy-3-((R)-2,2,2-trifluoro-1-hydroxyethyl)phenyl)-3-((1S,2R)-1-hydroxy-2,3-dihydro-1H-indene-2-yl)urea]
pain threshold, von Frey test [1]: 7.0 ± 0.3 g
AST value (ICR mouse): 47 U/L
microsomal CLint at 2 μM [2]: 94 µL/min/mg
Suppression Ratio of TNFα production (TNFα production): 100.0%
suppression ratio on immediate response (auricular swelling AUC 0-4 hours) [3]: 94.4%
suppression ratio on late response (auricular swelling AUC 5-10 hours) [3]: 93.1%
pain threshold (sec), plantar test, compared to solvent-administered group [4]: significantly elevated
